# Reference: patent US6429024B1, “Test method for IgA nephropathy” (Asahi Kasei Kabushiki Kaisha, priority 1998, dated 2002)
# Tested on: antibody recognizing the core peptide of the hinge region in IgA1 (IgG class, serum of patient with IgA nephropathy)
# Test: Assay of inhibitory activities of various synthetic peptides (enzyme immunoassay: patient serum pre-incubated with peptide, then reacted with immobilized IgA1 hinge core peptide-BSA antigen)
# Assay type: binding
# Settings: synthetic peptide 1 μg/ml in PBS mixed 1:1 with 1/50 diluted serum, room temperature 3 hours; peroxidase labeled anti-human IgG; absorbancy at 490 nm
# Description: Antigen was prepared according to the method described in the above example 1 (1).
# The above antigen solution was dissolved to […] in 0.015 M carbonate buffer (pH 9.6) and each 100 μl was added in each well of the 96 well microtiter plate (A Flow General Co., Linbro/Titertek EIA Microtitration plate, Cat. No. 76-381-04), then incubated at 4° C. overnight (standing culture).
# PBS (0.01 M phosphate buffer, pH 7.5 containing 0.15 M NaCl) solution (200 μl) containing 1% bovine serum albumin (fraction V, purchased from SIGMA Inc.) was added in each well, and incubated at 4° C. overnight. Each well was washed with 200 μl of PBS. The antigen was immobilized.
# Synthetic peptide [the core peptide constructing a part of the hinge region in IgA1 as follows:
# was dissolved to 1 μg/ml with PBS. The above diluted serum of patient with IgA nephropathy and the solution of synthetic peptide were mixed in equal volume (1:1). Also the above diluted serum of patient with IgA nephropathy and PBS without containing synthetic peptide (hereinafter designated as blank solution) were mixed in equal volume (1:1). These mixtures were incubated at room temperature for 3 hours.
# After termination of the incubation, each solution (100 μl) was added in each well, which was provided with the antigen immobilized therein, of the 96 well microtiter plate and incubated at room temperature for 3 hours.
# Each well was washed three times with 200 μl of PBS containing 0.1% bovine serum albumin, 0.05% Tween-20 (hereinafter designated as PS/BSA/Tween).
# A solution (100 μl) of peroxidase labeled anti-human IgG (purchased from Organon Tecknika Inc.), which was diluted to 1/200 with PBS, was added in each well.
# After incubation at room temperature for 1 hour, each well was washed three times with PS/BSA/Tween (200 μl).
# Coloring agent (100 μl)(orthophenylenediamine 20 mg, sodium […]·12H2O 1.795 g, citric acid 0.525 g, and hydrogen peroxide 15 μl were dissolved in water 50 ml) was added in each well, and incubated at room temperature for 1 hour.
# After the incubation was terminated, absorbency at 490 nm was measured using microplate reader (Bio-Red Inc., Microplate reader Model 450).
row,Substance,inhibitory action on the reaction of patient serum with the core peptide of the hinge region in IgA1
1,"Leu Lys Pro Asp Pro (LKPDP; listed as Bovine sp.) [core peptide constructing a part of the bovine serum albumin, reference compound]",no inhibitory action on the reaction was observed
2,Pro Ser Thr Pro Pro (PSTPP) [core peptide constructing a part of the hinge region in IgA1],inhibitory action on the reaction was observed
3,Thr Pro Pro Thr Pro (TPPTP) [core peptide constructing a part of the hinge region in IgA1],inhibitory action on the reaction was observed
4,Pro Ser Pro Ser Cys (PSPSC) [core peptide constructing a part of the hinge region in IgA1],inhibitory action on the reaction was observed
5,Pro Ser Pro Ser Thr (PSPST) [core peptide constructing a part of the hinge region in IgA1],inhibitory action on the reaction was observed
6,Pro Thr Pro Ser Pro (PTPSP) [core peptide constructing a part of the hinge region in IgA1],inhibitory action on the reaction was observed
7,"Thr Pro Asp Glu Thr (TPDET; listed as Bovine sp.) [core peptide constructing a part of the bovine serum albumin, reference compound]",no inhibitory action on the reaction was observed
8,"Ser Pro Asp Leu Pro (SPDLP; listed as Bovine sp.) [core peptide constructing a part of the bovine serum albumin, reference compound]",no inhibitory action on the reaction was observed
9,"Thr Pro Val Glu Ser (TPVES; listed as Bovine sp.) [core peptide constructing a part of the bovine serum albumin, reference compound]",no inhibitory action on the reaction was observed
10,Pro Val Pro Ser Thr (PVPST) [core peptide constructing a part of the hinge region in IgA1],inhibitory action on the reaction was observed
11,"Leu Pro Pro Leu Thr (LPPLT; listed as Bovine sp.) [core peptide constructing a part of the bovine serum albumin, reference compound]",no inhibitory action on the reaction was observed
